For experiment [1], the target named is Human cGAS amino acids 155-522 (Homo sapiens (Human), UniProt Q8N884). Briefly: cGAS biochemical activity assay (ATP remaining, Kinase-Glo Max luminescence). As to conditions: human cGAS 155-522, ATP remaining (Kinase-Glo Max); read-out: cGAS IC50. Background: In Kinase-Glo more light means more ATP remaining.
For experiment [2], the system named is cGAS/STING pathway in THP1 cells. Briefly: THP1 cell-based cGAS/STING pathway activity assay (IRF-3-linked luciferase reporter). As to conditions: Homo sapiens, THP-1. In outline:
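THP1 cells carrying an IRF-3-driven luciferase reporter were read across a range of compound concentrations, and IC50 values were derived from these concentration responses; the assay upper limit was 100 μM.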

Molecules are shown by their SMILES. Bounds are passed on as bounds.

Chain of Human cGAS amino acids 155-522 (Q8N884 157-522): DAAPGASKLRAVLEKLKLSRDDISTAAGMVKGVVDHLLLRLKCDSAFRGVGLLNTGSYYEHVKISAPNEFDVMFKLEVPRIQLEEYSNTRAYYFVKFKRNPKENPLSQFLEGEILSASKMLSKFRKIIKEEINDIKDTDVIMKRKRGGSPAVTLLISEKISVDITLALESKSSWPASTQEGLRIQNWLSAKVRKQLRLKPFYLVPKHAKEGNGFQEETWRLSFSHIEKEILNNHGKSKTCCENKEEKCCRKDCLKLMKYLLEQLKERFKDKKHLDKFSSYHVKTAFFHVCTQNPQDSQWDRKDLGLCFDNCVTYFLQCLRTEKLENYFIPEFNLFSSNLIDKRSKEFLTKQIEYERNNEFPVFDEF

Consider `Cc1nn2c(=O)c(-c3nc4c(o3)CCCC4)c(C)[nH]c2c1-c1ccccc1` [Compound C1032, 2,5-dimethyl-3-phenyl-6-(4,5,6,7-tetrahydrobenzo[d]oxazol-2-yl)pyrazolo[1,5-a]pyrimidin-7(4H)-one], for which the IC50 (usually the point on the concentration scale where inhibition reaches its midpoint) in experiment [1] is less than 20 µM; in experiment [2], 20 to 100 µM.
As for `Cc1[nH]c2c(-c3ccccc3)c(C(F)(F)F)nn2c(=O)c1-c1nc2c(o1)CCCC2=O` [Compound C1033, 2-(5-methyl-7-oxo-3-phenyl-2-(trifluoromethyl)-4,7-dihydropyrazolo[1,5-a]pyrimidin-6-yl)-6,7-dihydrobenzo[d]oxazol-4(5H)-one], the IC50 is less than 20 µM in experiment [1] and greater than 100 µM in experiment [2].
In the same order, the values of `COc1nccc2oc(-c3c(C)[nH]c4c(-c5ccccc5)c(C(F)(F)F)nn4c3=O)nc12` [Compound C1037, 6-(4-methoxyoxazolo[4,5-c]pyridin-2-yl)-5-methyl-3-phenyl-2-(trifluoromethyl)pyrazolo[1,5-a]pyrimidin-7(4H)-one] are less than 20 µM and less than 20 µM.
`CCOc1cccc2oc(-c3c(C)[nH]c4c(-c5ccccc5)c(C(F)(F)F)nn4c3=O)nc12` [Compound C1038, 6-(4-ethoxybenzo[d]oxazol-2-yl)-5-methyl-3-phenyl-2-(trifluoromethyl)pyrazolo[1,5-a]pyrimidin-7(4H)-one]: the IC50 in experiment [1] and in experiment [2] was less than 20 µM throughout.
As to `Cc1[nH]c2c(-c3ccccc3)c(C(F)(F)F)nn2c(=O)c1-c1nc2c(OC(C)C)cccc2o1` [Compound C1039, 6-(4-isopropoxybenzo[d]oxazol-2-yl)-5-methyl-3-phenyl-2-(trifluoromethyl)pyrazolo[1,5-a]pyrimidin-7(4H)-one], the results for the IC50 in experiment [1] and in experiment [2] were less than 20 µM and greater than 100 µM, respectively.
The matching figures for `Cc1[nH]c2c(-c3ccccc3)c(C(F)(F)F)nn2c(=O)c1-c1nc2c(Br)cccc2o1` [Compound C1040, 6-(4-bromobenzo[d]oxazol-2-yl)-5-methyl-3-phenyl-2-(trifluoromethyl)pyrazolo[1,5-a]pyrimidin-7(4H)-one]: less than 20 µM and less than 20 µM.
`COCCOc1cccc2oc(-c3c(C)[nH]c4c(-c5ccccc5)c(C(F)(F)F)nn4c3=O)nc12` [Compound C1041, 6-(4-(2-methoxyethoxy)benzo[d]oxazol-2-yl)-5-methyl-3-phenyl-2-(trifluoromethyl)pyrazolo[1,5-a]pyrimidin-7(4H)-one]: the IC50 in experiment [1] and in experiment [2] was less than 20 µM in each case.
Consider `COc1cccc2oc(-c3c(C)[nH]c4c(-c5ccccc5)c(C)nn4c3=O)nc12` [Compound C1042, 6-(4-methoxybenzo[d]oxazol-2-yl)-2,5-dimethyl-3-phenylpyrazolo[1,5-a]pyrimidin-7(4H)-one], for which the IC50 in experiment [1] and in experiment [2] was less than 20 µM in each case.
As for `CCc1cccc2oc(-c3c(C)[nH]c4c(-c5ccccc5)c(C(F)(F)F)nn4c3=O)nc12` [Compound C1046, 6-(4-ethylbenzo[d]oxazol-2-yl)-5-methyl-3-phenyl-2-(trifluoromethyl)pyrazolo[1,5-a]pyrimidin-7(4H)-one], the IC50 in experiment [1] and in experiment [2] was less than 20 µM throughout.
For the molecule `COC1CCCc2oc(-c3c(C)[nH]c4c(-c5ccccc5)c(C(F)(F)F)nn4c3=O)nc21` (stereo not drawn) [Compound C1048, 6-(4-methoxy-4,5,6,7-tetrahydrobenzo[d]oxazol-2-yl)-5-methyl-3-phenyl-2-(trifluoromethyl)pyrazolo[1,5-a]pyrimidin-7(4H)-one], the IC50 is less than 20 µM in experiment [1] and 20 to 100 µM in experiment [2].
The matching figures for `COc1cccc2oc(-c3c(C)[nH]c4c(-c5ccccc5)c(C(F)F)nn4c3=O)nc12` [Compound C1050, 2-(difluoromethyl)-6-(4-methoxybenzo[d]oxazol-2-yl)-5-methyl-3-phenylpyrazolo[1,5-a]pyrimidin-7(4H)-one]: less than 20 µM and less than 20 µM.
On to `COc1cccc2oc(-c3c(C)[nH]c4c(-c5ccccc5)c(C#N)nn4c3=O)nc12` [Compound C1051, 6-(4-methoxybenzo[d]oxazol-2-yl)-5-methyl-7-oxo-3-phenyl-4,7-dihydropyrazolo[1,5-a]pyrimidine-2-carbonitrile], for which the IC50 in experiment [1] is less than 20 µM; in experiment [2] it was 20 to 100 µM.
Take `Cc1[nH]c2c(-c3ccccc3)c(C(F)(F)F)nn2c(=O)c1-c1nc2c(o1)CCCC2O` (stereo not drawn) [Compound C1052, 6-(4-hydroxy-4,5,6,7-tetrahydrobenzo[d]oxazol-2-yl)-5-methyl-3-phenyl-2-(trifluoromethyl)pyrazolo[1,5-a]pyrimidin-7(4H)-one]: the IC50 in experiment [1] was less than 20 µM; in experiment [2], 20 to 100 µM.
Turning to `Cc1[nH]c2c(-c3ccccc3)c(C(F)(F)F)nn2c(=O)c1-c1nc2c(S(C)(=O)=O)cccc2o1` [Compound C1054, 5-methyl-6-(4-(methylsulfonyl)benzo[d]oxazol-2-yl)-3-phenyl-2-(trifluoromethyl)pyrazolo[1,5-a]pyrimidin-7(4H)-one], the figures for the IC50 in experiment [1] and in experiment [2] were 20 to 250 µM and greater than 100 µM, respectively.
In the same order, the values of `COc1cccc2nc(-c3c(C)[nH]c4c(-c5ccccc5)c(C(F)(F)F)nn4c3=O)cn12` [Compound C1057, 6-(5-methoxyimidazo[1,2-a]pyridin-2-yl)-5-methyl-3-phenyl-2-(trifluoromethyl)pyrazolo[1,5-a]pyrimidin-7(4H)-one] are less than 20 µM and greater than 100 µM.
In the same order, the values of `COc1ccnc2oc(-c3c(C)[nH]c4c(-c5ccccc5)c(C(F)(F)F)nn4c3=O)nc12` [Compound C1058, 6-(7-methoxyoxazolo[5,4-b]pyridin-2-yl)-5-methyl-3-phenyl-2-(trifluoromethyl)pyrazolo[1,5-a]pyrimidin-7(4H)-one] are less than 20 µM and greater than 100 µM.
Turning to `Cc1[nH]c2c(-c3ccccc3)c(C(F)(F)F)nn2c(=O)c1-c1nc2c(o1)CCCNC2=O` [Compound C1059, 2-(5-methyl-7-oxo-3-phenyl-2-(trifluoromethyl)-4,7-dihydropyrazolo[1,5-a]pyrimidin-6-yl)-5,6,7,8-tetrahydro-4H-oxazolo[4,5-c]azepin-4-one], the values for the IC50 in experiment [1] and in experiment [2] were less than 20 µM and greater than 100 µM, respectively.
As to `Cc1[nH]c2c(-c3ccccc3)c(C(F)(F)F)nn2c(=O)c1-c1nc2c(C)cccc2o1` [Compound C1060, 5-methyl-6-(4-methylbenzo[d]oxazol-2-yl)-3-phenyl-2-(trifluoromethyl)pyrazolo[1,5-a]pyrimidin-7(4H)-one], the IC50 in experiment [1] and in experiment [2] was less than 20 µM throughout.
For the molecule `Cc1[nH]c2c(-c3ccccc3)c(C(F)(F)F)nn2c(=O)c1-c1nc2c(OCCN)cccc2o1` [Compound C1061, 6-(4-(2-aminoethoxy)benzo[d]oxazol-2-yl)-5-methyl-3-phenyl-2-(trifluoromethyl)pyrazolo[1,5-a]pyrimidin-7(4H)-one], the IC50 lay in the range of 20 to 250 µM in experiment [1] and 20 to 100 µM in experiment [2].
The matching figures for `CC(=O)NCCOc1cccc2oc(-c3c(C)[nH]c4c(-c5ccccc5)c(C(F)(F)F)nn4c3=O)nc12` [Compound C1062, N-(2-((2-(5-methyl-7-oxo-3-phenyl-2-(trifluoromethyl)-4,7-dihydropyrazolo[1,5-a]pyrimidin-6-yl)benzo[d]oxazol-4-yl)oxy)ethyl)acetamide]: less than 20 µM and greater than 100 µM.
The matching figures for `COc1nn2c(=O)c(-c3nc4c(OC)cccc4o3)c(C)[nH]c2c1-c1ccccc1` [Compound C1064, 2-methoxy-6-(4-methoxybenzo[d]oxazol-2-yl)-5-methyl-3-phenylpyrazolo[1,5-a]pyrimidin-7(4H)-one]: 20 to 250 µM and less than 20 µM.
The matching figures for `COc1cccc2nc(-c3c(C)[nH]c4c(-c5ccccc5)c(C(F)(F)F)nn4c3=O)n(C)c12` [Compound C1065, 6-(7-methoxy-1-methyl-1H-benzo[d]imidazol-2-yl)-5-methyl-3-phenyl-2-(trifluoromethyl)pyrazolo[1,5-a]pyrimidin-7(4H)-one]: 20 to 250 µM and greater than 100 µM.
In the case of `Cc1[nH]c2c(-c3ccccc3)c(C(F)(F)F)nn2c(=O)c1-c1nc2c(OCCNS(C)(=O)=O)cccc2o1` [Compound C1066, N-(2-((2-(5-methyl-7-oxo-3-phenyl-2-(trifluoromethyl)-4,7-dihydropyrazolo[1,5-a]pyrimidin-6-yl)benzo[d]oxazol-4-yl)oxy)ethyl)methanesulfonamide], the IC50 was less than 20 µM in experiment [1] and greater than 100 µM in experiment [2].
For the molecule `COc1cccc2sc(-c3c(C)[nH]c4c(-c5ccccc5)c(C(F)(F)F)nn4c3=O)nc12` [Compound C1070, 6-(4-methoxybenzo[d]thiazol-2-yl)-5-methyl-3-phenyl-2-(trifluoromethyl)pyrazolo[1,5-a]pyrimidin-7(4H)-one], the IC50 in experiment [1] and in experiment [2] was less than 20 µM throughout.
With `Cc1[nH]c2c(-c3ccccc3)c(C(F)(F)F)nn2c(=O)c1-c1nc2c(C#N)cccc2o1` [Compound C1075, 2-(5-methyl-7-oxo-3-phenyl-2-(trifluoromethyl)-4,7-dihydropyrazolo[1,5-a]pyrimidin-6-yl)benzo[d]oxazole-4-carbonitrile], the IC50 was less than 20 µM in experiment [1] and greater than 100 µM in experiment [2].
The matching figures for `Cc1[nH]c2c(-c3ccccc3)c(C(F)(F)F)nn2c(=O)c1-c1nc2c(F)cccc2o1` [Compound C1076, 6-(4-fluorobenzo[d]oxazol-2-yl)-5-methyl-3-phenyl-2-(trifluoromethyl)pyrazolo[1,5-a]pyrimidin-7(4H)-one]: less than 20 µM and less than 20 µM.
In the same order, the values of `Cc1[nH]c2c(-c3ccccc3)c(C(F)(F)F)nn2c(=O)c1-c1nc2c(N(C)C)cccc2o1` [Compound C1078, 6-(4-(dimethylamino)benzo[d]oxazol-2-yl)-5-methyl-3-phenyl-2-(trifluoromethyl)pyrazolo[1,5-a]pyrimidin-7(4H)-one] are less than 20 µM and less than 20 µM.

These data come from patent US10738056B2 (Aduro BioTech, Inc., priority 2017, dated 2020).
